According to US8598145B2, “Mitochondrially delivered anti-cancer compounds” (priority 2008, dated 2013):
Each block holds one compound with its values, some of them ahead of it.

What was measured:
Jurkat, U937, Meso-2 = conditions: cited from earlier work
LNCaP, PC-3 = conditions: Shiau et al, 2006; cited from earlier work
[1] = tested on: Jurkat, HBT1, MCF7, MCF7-C3, U937, Meso-2; conditions: cited from earlier work
MCF7 = conditions: Arya et al; cited from earlier work
[2] = tested on: Jurkat, HBT11, MCF7, MCF7-C3; conditions: Table II; cited from earlier work
Jurkat = assay: MTT viability assay (IC50); assay type: cell-based, human
Text: (§1) The following cell lines used in this study were obtained from ATCC, unless specified otherwise: Human T lymphoma cells Jurkat, human mesothelioma cells Meso-I, MM-BI, Ist-Mes, Ist-Mes-2 (Pass, H. I. et al. Characteristics of nine newly derived mesothelioma cell lines. Ann. Thorac. Surg. 59, 835-844 (1995)), human breast cancer cells MCF-7 (erbB2-low) and MDA-MB-453 (erbB2-high), human colorectal cells HCT-116, human hepatocarcinoma cells Huh-7, mouse mesothelioma cells AE17 (Jackaman, C. et al. IL-2 intratumoral immunotherapy enhances CD8+ T cells that mediate destruction of tumor cells and tumor-associated vasculature: a novel mechanism for IL-2. J. Immunol. 171, […] (2003), human non-malignant mesothelial cells Met-5A, […] (Claycomb, W. C. et al. HL-1 cells: a cardiac muscle cell line that contracts and retains phenotypic characteristics of the adult cardiomyocyte. Proc. Natl. Acad. Sci. USA 95, 2979-2984 […]) and H9c2, and the human endothelial-like cells EAhy926 (Edgell, C. J., McDonald, C. C. & Graham, J. B. Permanent cell line expressing human factor VIII-related antigen established by hybridization. Proc. Natl. Acad. Sci. USA 80, 3734-3737 (1983)). Jurkat cells were grown in the RPMI medium while DMEM was used for other malignant cell lines and for Met-5A cells, supplemented with 10% FCS and antibiotics. HL-1 cells, maintained in fibronectin/gelatine-coated dishes, were grown in the Claycomb medium supplemented with noradrenalin (Claycomb, W. C. et al. HL-1 cells: a cardiac muscle cell line that contracts and retains phenotypic characteristics of the adult cardiomyocyte. Proc. Natl. Acad. Sci. USA 95, 2979-2984 […]), EAhy926 cells were grown in complete DMEM supplemented with HAT (Edgell, C. J., McDonald, C. C. & Graham, J. B. Permanent cell line expressing human factor VIII-related antigen established by hybridization. Proc. Natl. Acad. Sci. USA 80, 3734-3737 (1983)). Cells deficient in mtDNA (ρ^0 phenotype) were prepared as detailed in Weber, T. et al., (Mitochondria play a central role in apoptosis induced by α-tocopheryl succinate, an agent with anticancer activity. Comparison with receptor-mediated pro-apoptotic signaling. Biochemistry 42, 4277-4291 (2003)). Acquisition of the ρ^0 phenotype was confirmed by lack of expression by the cells of the mtDNA-encoded cytochrome c oxidase subunit II (COXII not shown). Chinese hamster lung fibroblasts deficient in complex I (B10 cells) (See, B. B. et al. Molecular remedy of complex I defects: rotenone-insensitive internal NADH-quinone oxidoreductase of Saccharomyces cerevisiae mitochondria restores the NADH oxidase activity of complex I-deficient mammalian cells. Proc. Natl. Acad. Sci. USA 95, 9167-9171 (1998)) and complex II (CybL^−/−; B9 cells) (Oostveen, F. G., Au, H. C., Meijer, P. J. & Scheffler, I. E. A Chinese hamster mutant cell line with a defect in the integral membrane protein CII-3 of complex II of the mitochondrial electron transport chain. J. Biol. Chem. 270: 26104-26108 (1995)) as well as the parental cells (B1 cells) (Oostveen, F. G., Au, H. C., Meijer, P. J. & Scheffler, I. E. A Chinese hamster mutant cell line with a defect in the integral membrane protein CII-3 of complex II of the mitochondrial electron transport chain. J. Biol. Chem. 270: 26104-26108 (1995)) were grown in DMEM with 10% FCS, antibiotics, 10 mg/ml glucose and non-essential aminoacids.
(§2) Toxicity of α-TOS, VE11S (“VES”), MitoVE3S, MitoVE5S, MitoVE7S, MitoVE9S, MitoVE11S (“MitoVES”), MitoVE11AE (“MitoVEAE”), MitoVE11F (“MitoVEF”), MitoVE11M (“MitoVEM”), and VES4TPP towards cancer cells was assessed on the basis of IC50, as detailed in Turanek, J., et al. ((2008). Liposomal formulation of vitamin E analogs as an efficient and selective anti-cancer treatment. Clin. Cancer Res. (submitted)). […]

[3] = biological target: T1, α-tocopherol transfer protein (α-TTP) (Rattus norvegicus, UniProt P41034); conditions: Hosomi et al 1997; cited from earlier work
T1 sequence (P41034 1-278): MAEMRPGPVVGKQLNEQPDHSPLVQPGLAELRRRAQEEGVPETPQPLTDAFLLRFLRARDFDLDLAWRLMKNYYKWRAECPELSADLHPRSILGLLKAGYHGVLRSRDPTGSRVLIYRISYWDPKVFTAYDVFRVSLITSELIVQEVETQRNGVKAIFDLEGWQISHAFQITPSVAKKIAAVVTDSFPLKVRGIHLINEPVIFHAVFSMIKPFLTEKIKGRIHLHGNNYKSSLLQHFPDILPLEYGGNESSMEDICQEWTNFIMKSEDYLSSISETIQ

MDA-MB-435, MCF7 = conditions: cited from earlier work
B16(F10) = conditions: cited from earlier work
B16-F1/ nude mice = conditions: Kogure et al 2005; cited from earlier work
[4] = tested on: Ras-transformed B9 cells with a defective Complex II; assay: Apoptosis in Ras-transformed B1 and B9 cells (FIG. 4C); assay type: cell-based, Chinese hamster
Experimental: 4C—After 24 h of treatment with Complex II targeting drugs TTFA or MitoVES, Ras transformed B1 and B9 cells were assessed for apoptosis using the Annexin V binding method.
as §1, with “Chinese hamster lung fibroblasts deficient in complex I (B10 cells) (See, B. B. et al. Molecular remedy of complex I defects: rotenone-insensitive internal NADH-quinone oxidoreductase of Saccharomyces cerevisiae mitochondria restores the NADH oxidase activity of complex I-deficient mammalian cells. Proc. Natl. Acad. Sci. USA 95, 9167-9171 (1998)) and complex II (CybL^−/−; B9 cells) (Oostveen, F. G., Au, H. C., Meijer, P. J. & Scheffler, I. E. A Chinese hamster mutant cell line with a defect in the integral membrane protein CII-3 of complex II of the mitochondrial electron transport chain. J. Biol. Chem. 270: 26104-26108 (1995)) as well as the parental cells (B1 cells) (Oostveen, F. G., Au, H. C., Meijer, P. J. & Scheffler, I. E. A Chinese hamster mutant cell line with a defect in the integral membrane protein CII-3 of complex II of the mitochondrial electron transport chain. J. Biol. Chem. 270: 26104-26108 (1995)) were grown in DMEM with 10% FCS, antibiotics, 10 mg/ml glucose and non-essential aminoacids.” left out

MCF-7 = assay: MTT viability assay (IC50); assay type: cell-based, human; conditions: MCF-7, ~60% confluency
Text: as §1, §2

Meso-2 = assay: MTT viability assay (IC50); assay type: cell-based, human; conditions: Meso-2, ~60% confluency
Text: as §1, §2

H9c2 = assay: MTT viability assay (IC50); assay type: cell-based, rat; conditions: H9c2, ~60% confluency
Text: as §1, §2

HL-1 = assay: MTT viability assay (IC50); assay type: cell-based, rat; conditions: HL-1, ~60% confluency
Text: as §1, §2

NB4, HT93 = conditions: cited from earlier work
[5] = tested on: neoplastIc + SA mammary epithelial cells; conditions: cited from earlier work
[6] = Table VI: Jurkat 0.5 × 10^6 per ml, analogs added as EtOH solution, MTT

SMILES: COC(=O)CCC(=O)Nc1c(C)c(C)c2c(c1C)CCC(C)(CCCC(C)CCCC(C)CCCC(C)C)O2 (stereo not shown) [Nr 14]
- IC50 (Jurkat, U937, Meso-2): > 100 µM

SMILES: Cc1c(C)c2c(c(C)c1OC(=O)CCC(=O)O)CCC(C)(C)O2 [Nr 46]
- IC50 (LNCaP, PC-3): > 100 µM

SMILES: Cc1cc(OC(=O)CCC(=O)O)c(C)c2c1OC(C)(CCCC(C)CCCC(C)CCCC(C)C)CC2 (stereo not shown) [Nr 32]
- IC50, printed relative to α-TOS [1]: 50% of α-TOS

SMILES: CCCCCOCC1(C)CCc2c(C)c(OC(=O)C(N)CCCCN)c(C)c(C)c2O1 (stereo not shown) [Nr 48]
- IC50 (MCF7): 22 µM

SMILES: Cc1cc(OC(=O)CCC(=O)O)cc2c1OC(C)(CCCC(C)CCCC(C)CCCC(C)C)CC2 (stereo not shown) [Nr 35]
- IC50 [2]: 66 µM

SMILES: Cc1c(C)c2c(c(C)c1NC(=O)C=CC(=O)O)CCC(C)(CCCC(C)CCCC(C)CCCC(C)C)O2 (stereo not shown) [Nr 13]
- IC50 (Jurkat, U937, Meso-2): 2 µM

SMILES: Cc1c(C)c2c(c(C)c1OC(=O)CCC(=O)O)CCC(C)(CCCC(C)CCCC(C)C)O2 (stereo not shown) [Nr 43]
- IC50 (LNCaP, PC-3): 4 to 9 µM

- IC50 (Jurkat; [6]): > 100 µM
SMILES: Cc1c(C)c2c(c(C)c1O)CC[C@@](C)(CCC[C@H](C)CCC[C@H](C)CCCC(C)C)O2 [α-TOH, α-tocopherol, reference compound]
- relative affinities for α-TTP [3]: 100%

SMILES: Cc1c(C)c2c(c(C)c1OC(=O)C(N)CCCCN)CCC(C)(CCCC(C)CCCC(C)CCCC(C)C)O2 (stereo not shown) [Nr 16]
- IC50 (MCF7): 12 µM

SMILES: Cc1c(C)c2c(c(C)c1OCCC(=O)O)CCC(C)(CCCC(C)CCCC(C)C)O2 (stereo not shown) [Nr 44]
- IC50 (LNCaP, PC-3): 4 to 8 µM

SMILES: Cc1cc(NC(=O)C=CC(=O)O)cc2c1OC(C)(CCCC(C)CCCC(C)CCCC(C)C)CC2 (stereo not shown) [Nr 38]
- IC50 (Jurkat, U937, Meso-2): 9 µM

SMILES: Cc1c(C)c2c(c(C)c1OCC(=O)O)CCC(C)(CCCC(C)CCCC(C)CCCC(C)C)O2 (stereo not shown) [Nr 21]
- EC50 (MDA-MB-435, MCF7): 15 to 20 µg/mL

SMILES: CCCCC(=O)OCC1(C)CCc2c(C)c(OC(=O)C(N)CCCCN)c(C)c(C)c2O1 (stereo not shown) [Nr 49]
- IC50 (MCF7): 15 µM

SMILES: Cc1cc(NC(=O)CCC(=O)O)cc2c1OC(C)(CCCC(C)CCCC(C)CCCC(C)C)CC2 (stereo not shown) [Nr 37]
- IC50 (Jurkat, U937, Meso-2): 20 µM

SMILES: CC(C)=CCCC(C)=CCCC(C)=CCCC1(C)CCc2cc(O)ccc2O1 (stereo not shown) [Nr 60]
- IC50 (B16(F10)): 0.9 µM

SMILES: Cc1cc(O)c(C)c2c1O[C@](C)(CCC[C@H](C)CCC[C@H](C)CCCC(C)C)CC2 [β-tocopherol]
- relative affinities for α-TTP [3]: 38%

SMILES: Cc1c(C)c2c(c(C)c1NC(=O)CCC(=O)O)CCC(C)(CCCC(C)CCCC(C)CCCC(C)C)O2 (stereo not shown) [Nr 12]
- IC50 (Jurkat, U937, Meso-2): 13 µM

SMILES: Cc1c(C)c2c(c(C)c1OC(=O)C(=O)O)CCC(C)(CCCC(C)CCCC(C)CCCC(C)C)O2 (stereo not shown) [Nr 10]
- cytotoxicity in mice inoculated with B16-F1 melanoma cells (B16-F1/ nude mice): non-selective cytotoxicity

SMILES: Cc1c(O)cc2c(c1C)O[C@](C)(CCC[C@H](C)CCC[C@H](C)CCCC(C)C)CC2 [γ-tocopherol]
- relative affinities for α-TTP [3]: 9%

SMILES: O=C(CC(=O)C(F)(F)F)c1cccs1 [TTFA, reference compound]
- sensitivity to apoptosis of Ras-transformed B9 cells compared to Ras-transformed B1 cells ([4]; 24 h treatment, Annexin V binding): much less sensitive
- sensitivity after reconstitution of Complex II function (human SDHC) in Ras-transformed B9 cells ([4]; B9 cells transfected to express human SDHC): restored the sensitivity

- IC50 (Jurkat; Jurkat, treated at 0.5 × 10^6 per ml, MTT viability curves): 21 ± 5 µM
- IC50 (Jurkat; [6]): 21 ± 5 µM
- IC50 (MCF-7): 19 ± 3 µM
SMILES: Cc1c(C)c2c(c(C)c1OC(=O)CCC(=O)OCCCC[P+](c1ccccc1)(c1ccccc1)c1ccccc1)CCC(C)(CCCC(C)CCCC(C)CCCC(C)C)O2 (stereo not shown) [VES4TPP]
- IC50 (Meso-2): 28 ± 6 µM
- IC50 (H9c2): > 100 µM
- IC50 (HL-1): > 100 µM

SMILES: Cc1cc(O)cc2c1O[C@](C)(CCC[C@H](C)CCC[C@H](C)CCCC(C)C)CC2 [δ-tocopherol]
- relative affinities for α-TTP [3]: 2%

SMILES: Cc1c(C)c2c(c(C)c1OC(=O)C=CC(=O)O)CCC(C)(CCCC(C)CCCC(C)CCCC(C)C)O2 (stereo not shown) [Nr 3]
- IC50 [2]: 22 µM

SMILES: CC1=C(/C=C/C(C)=C/C=C/C(C)=C/C(=O)Oc2c(C)c(C)c3c(c2C)CCC(C)(CCCC(C)CCCC(C)CCCC(C)C)O3)C(C)(C)CCC1 (stereo not shown) [Nr 28]
- IC50 (NB4, HT93): 100 to 1000 nM

SMILES: Cc1c(C)c2c(c(C)c1OC(=O)C(N)CCCCN)CCC(C)(CO)O2 (stereo not shown) [Nr 47]
- IC50 (MCF7): 194 µM

SMILES: Cc1c(C)c2c(c(C)c1OC(=O)CC(=O)O)CCC(C)(CCCC(C)CCCC(C)CCCC(C)C)O2 (stereo not shown) [Nr 11]
- cytotoxicity in mice inoculated with B16-F1 melanoma cells (B16-F1/ nude mice): non-selective cytotoxicity

SMILES: Cc1cc(OC(=O)C=CC(=O)O)cc2c1OC(C)(CCCC(C)CCCC(C)CCCC(C)C)CC2 (stereo not shown) [Nr 36]
- IC50 [2]: 49 µM

SMILES: CC(C)=CCCC(C)=CCCC(C)=CCCC1(C)CCc2cc(O)c(C)c(C)c2O1 (stereo not shown) [Nr 56]
- IC50 (B16(F10)): 20 µM
- IC50 [5]: 4 µM

SMILES: CC(C)=CCCC(C)=CCCC(C)=CCCC1(C)CCc2cc(O)cc(C)c2O1 (stereo not shown) [Nr 59]
- IC50 (B16(F10)): 10 µM
